Measured values: the supplement of paper PMC10733146

Key:
Test in all cases: viability relative to DMSO control (fraction); higher = less drug effect (more viable cells)
Conditions in all cases: 48 h
SGC 0946 = compound: CC(C)N(CCCNC(=O)Nc1ccc(C(C)(C)C)cc1)C[C@H]1O[C@@H](n2cc(Br)c3c(N)ncnc32)[C@H](O)[C@@H]1O [SGC 0946]
In short: (§1)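 Viability is given as CellTiter-Glo luminescence relative to the median of 16 inner DMSO wells. Fresh or cryopreserved primary mononuclear tumour cells from blood, bone marrow (both Ficoll-isolated) or processed lymph node were plated at 4 × 10^4 cells per well in 384-well plates against five pre-plated compound concentrations, one well each. Incubation lasted 48 h at 37 °C and 5% CO2 in RPMI-1640 with penicillin/streptomycin, L-glutamine and human serum.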

Roscovitine = compound: CC[C@H](CO)Nc1nc(NCc2ccccc2)c2ncn(C(C)C)c2n1 [Roscovitine]
In short: as §1

Vindesine = compound: CC[C@]1(O)C[C@@H]2CN(CCc3c([nH]c4ccccc34)[C@@](C(=O)OC)(c3cc4c(cc3OC)N(C)[C@H]3[C@@](O)(C(N)=O)[C@H](O)[C@]5(CC)C=CCN6CC[C@]43[C@@H]65)C2)C1 [Vindesine]
In short: as §1

Midostaurin hydrate = compound: CO[C@@H]1[C@H](N(C)C(=O)c2ccccc2)C[C@H]2O[C@]1(C)n1c3ccccc3c3c4c(c5c6ccccc6n2c5c31)C(=O)NC4 [Midostaurin hydrate]
In short: as §1

Everolimus = compound: CO[C@H]1C[C@@H]2CC[C@@H](C)[C@@](O)(O2)C(=O)C(=O)N2CCCC[C@H]2C(=O)O[C@H]([C@H](C)C[C@@H]2CC[C@@H](OCCO)[C@H](OC)C2)CC(=O)[C@H](C)/C=C(\C)[C@@H](O)[C@@H](OC)C(=O)[C@H](C)C[C@H](C)/C=C/C=C/C=C/1C [Everolimus]
In short: as §1

Idasanutlin (RS7388) = compound: COc1cc(C(=O)O)ccc1NC(=O)[C@@H]1N[C@@H](CC(C)(C)C)[C@](C#N)(c2ccc(Cl)cc2F)[C@H]1c1cccc(Cl)c1F [Idasanutlin (RS7388)]
In short: as §1

Etoposide = compound: COc1cc([C@@H]2c3cc4c(cc3[C@@H](O[C@@H]3O[C@@H]5CO[C@@H](C)O[C@H]5[C@H](O)[C@H]3O)[C@H]3COC(=O)[C@H]23)OCO4)cc(OC)c1O [Etoposide]
In short: as §1

Tofacitinib = compound: C[C@@H]1CCN(C(=O)CC#N)C[C@@H]1N(C)c1ncnc2[nH]ccc12 [Tofacitinib]
In short: as §1

Duvelisib = compound: C[C@H](Nc1ncnc2nc[nH]c12)c1cc2cccc(Cl)c2c(=O)n1-c1ccccc1 [Duvelisib]
In short: as §1

Bendamustine = compound: Cn1c(CCCC(=O)O)nc2cc(N(CCCl)CCCl)ccc21 [Bendamustine]
In short: as §1

Pomalidomide = compound: Nc1cccc2c1C(=O)N(C1CCC(=O)NC1=O)C2=O [Pomalidomide]
In short: as §1

[1] = compound: O=C(Nc1ccc2[nH]nc(-c3ccncc3)c2c1)[C@@H]1CCN(CC(=O)N2CCN(c3ccc(-c4ncccn4)cc3)CC2)C1
In short: as §1

Chlorambucil = compound: O=C(O)CCCc1ccc(N(CCCl)CCCl)cc1 [Chlorambucil]
In short: as §1

Entospletinib = compound: c1cn2cc(-c3ccc4cn[nH]c4c3)nc(Nc3ccc(N4CCOCC4)cc3)c2n1 [Entospletinib]
In short: as §1

For primary AML patient cells (S072), the viability (SGC 0946; 0.024 µM) was 0.981, the viability (SGC 0946; 0.12 µM) was 0.932 and the viability (SGC 0946; 0.6 µM) was 0.893. It also gave a viability (SGC 0946; 3 µM) of 0.847, a viability (SGC 0946; 15 µM) of 0.706 and a viability (Roscovitine; 0.032 µM) of 0.93. The viability (Roscovitine; 0.16 µM) was 0.85, the viability (Roscovitine; 0.8 µM) was 0.874 and the viability (Roscovitine; 4 µM) was 0.82. For the same test system, the viability (Roscovitine; 20 µM) was 0.483, the viability (Vindesine; 0.016 µM) was 1.08 and the viability (Vindesine; 0.08 µM) was 0.943. The viability (Vindesine; 0.4 µM) was 0.892, the viability (Vindesine; 2 µM) was 0.776 and the viability (Vindesine; 10 µM) was 0.648. It also gave a viability (Midostaurin hydrate; 0.024 µM) of 1.3, a viability (Midostaurin hydrate; 0.12 µM) of 1.01 and a viability (Midostaurin hydrate; 0.6 µM) of 0.993. For the same test system, the viability (Midostaurin hydrate; 3 µM) was 0.87, the viability (Midostaurin hydrate; 15 µM) was 0.584 and the viability (Everolimus; 0.0032 µM) was 0.785. The viability (Everolimus; 0.016 µM) was 0.744, the viability (Everolimus; 0.08 µM) was 0.789 and the viability (Everolimus; 0.4 µM) was 0.758. It also gave a viability (Everolimus; 2 µM) of 0.775, a viability (Idasanutlin (RS7388); 0.032 µM) of 0.77 and a viability (Idasanutlin (RS7388); 0.16 µM) of 0.89. The viability (Idasanutlin (RS7388); 0.8 µM) was 0.846, the viability (Idasanutlin (RS7388); 4 µM) was 0.695 and the viability (Idasanutlin (RS7388); 20 µM) was 0.763. The viability (Etoposide; 0.032 µM) was 1.04, the viability (Etoposide; 0.16 µM) was 0.99 and the viability (Etoposide; 0.8 µM) was 0.912. For the same test system, the viability (Etoposide; 4 µM) was 0.938, the viability (Etoposide; 20 µM) was 0.736 and the viability (Tofacitinib; 0.024 µM) was 0.903. The viability (Tofacitinib; 0.12 µM) was 0.859, the viability (Tofacitinib; 0.6 µM) was 0.84 and the viability (Tofacitinib; 3 µM) was 0.776. The viability (Tofacitinib; 15 µM) was 0.827, the viability (Duvelisib; 0.0016 µM) was 0.875 and the viability (Duvelisib; 0.008 µM) was 0.834. It also gave a viability (Duvelisib; 0.04 µM) of 0.78, a viability (Duvelisib; 0.2 µM) of 0.7 and a viability (Duvelisib; 1 µM) of 0.612. It also gave a viability (Bendamustine; 0.032 µM) of 0.999, a viability (Bendamustine; 0.16 µM) of 1.03 and a viability (Bendamustine; 0.8 µM) of 1.02. It also gave a viability (Bendamustine; 4 µM) of 1.01, a viability (Bendamustine; 20 µM) of 0.839 and a viability (Pomalidomide; 0.0032 µM) of 0.977. For the same test system, the viability (Pomalidomide; 0.016 µM) was 1.13, the viability (Pomalidomide; 0.08 µM) was 1.19 and the viability (Pomalidomide; 0.4 µM) was 1.14. For the same test system, the viability (Pomalidomide; 2 µM) was 1.25, the viability ([1]; 0.008 µM) was 0.924 and the viability ([1]; 0.04 µM) was 0.878. For the same test system, the viability ([1]; 0.2 µM) was 0.808, the viability ([1]; 1 µM) was 0.716 and the viability ([1]; 5 µM) was 0.569. It also gave a viability (Chlorambucil; 0.032 µM) of 0.968, a viability (Chlorambucil; 0.16 µM) of 1.11 and a viability (Chlorambucil; 0.8 µM) of 1.21. The viability (Chlorambucil; 4 µM) was 0.87, the viability (Chlorambucil; 20 µM) was 0.683 and the viability (Entospletinib; 0.024 µM) was 1.02. It also gave a viability (Entospletinib; 0.12 µM) of 0.935, a viability (Entospletinib; 0.6 µM) of 0.986 and a viability (Entospletinib; 3 µM) of 0.995. For the same test system, the viability (Entospletinib; 15 µM) was 0.917.

primary MCL patient cells (S041) showed a viability (SGC 0946; 0.024 µM) of 0.938, a viability (SGC 0946; 0.12 µM) of 0.965 and a viability (SGC 0946; 0.6 µM) of 0.897. For the same test system, the viability (SGC 0946; 3 µM) was 0.854, the viability (SGC 0946; 15 µM) was 0.605 and the viability (Roscovitine; 0.032 µM) was 0.99. It also gave a viability (Roscovitine; 0.16 µM) of 0.965, a viability (Roscovitine; 0.8 µM) of 1.07 and a viability (Roscovitine; 4 µM) of 0.995. The viability (Roscovitine; 20 µM) was 0.593, the viability (Vindesine; 0.016 µM) was 0.764 and the viability (Vindesine; 0.08 µM) was 0.622. For the same test system, the viability (Vindesine; 0.4 µM) was 0.595, the viability (Vindesine; 2 µM) was 0.529 and the viability (Vindesine; 10 µM) was 0.351. It also gave a viability (Midostaurin hydrate; 0.024 µM) of 1.09, a viability (Midostaurin hydrate; 0.12 µM) of 1.06 and a viability (Midostaurin hydrate; 0.6 µM) of 0.972. The viability (Midostaurin hydrate; 3 µM) was 0.802, the viability (Midostaurin hydrate; 15 µM) was 0.637 and the viability (Everolimus; 0.0032 µM) was 0.912. For the same test system, the viability (Everolimus; 0.016 µM) was 0.868, the viability (Everolimus; 0.08 µM) was 0.873 and the viability (Everolimus; 0.4 µM) was 0.86. The viability (Everolimus; 2 µM) was 0.882, the viability (Idasanutlin (RS7388); 0.032 µM) was 0.794 and the viability (Idasanutlin (RS7388); 0.16 µM) was 0.811. It also gave a viability (Idasanutlin (RS7388); 0.8 µM) of 0.607, a viability (Idasanutlin (RS7388); 4 µM) of 0.278 and a viability (Idasanutlin (RS7388); 20 µM) of 0.147. It also gave a viability (Etoposide; 0.032 µM) of 1.04, a viability (Etoposide; 0.16 µM) of 0.982 and a viability (Etoposide; 0.8 µM) of 0.968. For the same test system, the viability (Etoposide; 4 µM) was 0.941, the viability (Etoposide; 20 µM) was 0.733 and the viability (Tofacitinib; 0.024 µM) was 0.967. It also gave a viability (Tofacitinib; 0.12 µM) of 0.967, a viability (Tofacitinib; 0.6 µM) of 0.98 and a viability (Tofacitinib; 3 µM) of 1.05. The viability (Tofacitinib; 15 µM) was 1.05, the viability (Duvelisib; 0.0016 µM) was 0.89 and the viability (Duvelisib; 0.008 µM) was 0.872. For the same test system, the viability (Duvelisib; 0.04 µM) was 0.857, the viability (Duvelisib; 0.2 µM) was 0.855 and the viability (Duvelisib; 1 µM) was 0.838. The viability (Bendamustine; 0.032 µM) was 0.996, the viability (Bendamustine; 0.16 µM) was 1.05 and the viability (Bendamustine; 0.8 µM) was 0.988. The viability (Bendamustine; 4 µM) was 0.958, the viability (Bendamustine; 20 µM) was 0.788 and the viability (Pomalidomide; 0.0032 µM) was 1.01. The viability (Pomalidomide; 0.016 µM) was 1.03, the viability (Pomalidomide; 0.08 µM) was 1.03 and the viability (Pomalidomide; 0.4 µM) was 0.943. The viability (Pomalidomide; 2 µM) was 0.94, the viability ([1]; 0.008 µM) was 0.979 and the viability ([1]; 0.04 µM) was 0.985. The viability ([1]; 0.2 µM) was 0.959, the viability ([1]; 1 µM) was 0.927 and the viability ([1]; 5 µM) was 0.862. For the same test system, the viability (Chlorambucil; 0.032 µM) was 0.971, the viability (Chlorambucil; 0.16 µM) was 0.95 and the viability (Chlorambucil; 0.8 µM) was 0.993. For the same test system, the viability (Chlorambucil; 4 µM) was 0.896, the viability (Chlorambucil; 20 µM) was 0.469 and the viability (Entospletinib; 0.024 µM) was 0.999. It also gave a viability (Entospletinib; 0.12 µM) of 1.02, a viability (Entospletinib; 0.6 µM) of 0.964 and a viability (Entospletinib; 3 µM) of 0.983. For the same test system, the viability (Entospletinib; 15 µM) was 1.12.
